{
  "source": "paper PMC13086964",
  "about": "“USP7 deubiquitinase stabilizes FAN1 to support DNA crosslink repair and suppress CAG repeat expansion” (Nature Communications, 2026)",
  "type_in_all_cases": "cell-based, human",
  "key": {"FAN1-USP7": {"tested_on": "FAN1-USP7", "assay": "in situ proximity ligation assay (PLA), FAN1-USP7 association", "settings": "HeLa cells, MMC 150 ng/ml, 24 h", "protocol": "HeLa parental and FAN1 KO cells were grown in the absence or presence of MMC (150 ng/ml) for 24 hours. Cells were pre-extracted with CSK buffer containing 0.5% of Triton™ X-100 (Sigma–Aldrich) for 5 min on ice and fixed in 4% formaldehyde in PBS (w/v) for 20 min at room temperature (RT). Coverslips were then washed with PBS and stored overnight at 4 °C. In situ PLA was performed using Duolink PLA technology (Sigma-Aldrich) according to the manufacturer’s instructions. In brief, coverslips were blocked for 30 min at 37 °C with blocking solution and then incubated with the respective primary antibodies for 2 h at 37 °C. Coverslips were washed three times for 5 min in Wash Buffer A (0.01 M Tris, 0.15 M NaCl, and 0.05% Tween 20). Then, Duolink anti-Mouse PLUS and anti-Rabbit MINUS PLA probes were coupled to the primary antibodies for 1 h at 37 °C. After three wash steps in Wash buffer A for 5 min, the PLA probes were ligated for 30 min at 37 °C. Coverslips were then washed three times for 5 min in Wash buffer A. Amplification using the “Duolink In Situ Detection Reagents FarRed” (Sigma-Aldrich) was performed at 37 °C for 100 min. […] Lastly, the coverslips were mounted using Vectashield Mounting Media (Vector Laboratories) containing DAPI, sealed and imaged on a Leica DMI 6000 fluorescence microscope at x63 magnification. […]"}, "RPE-1 p53 KO cells": {"tested_on": "RPE-1 p53 KO cells", "assay": "apoptosis: PARP-1 and caspase-3 cleavage, RPE-1 p53 KO", "settings": "RPE-1 p53 KO cells depleted of FAN1, USP7, or both, MMC 1 μg/ml, 48 h", "protocol": "If not stated otherwise, cells were lysed in RIPA buffer (50 mM Tris-HCl, pH 7.5, 150 mM NaCl, 1% IGEPAL, 0.5% sodium deoxycholate, 0.1% SDS) supplemented with phosphatase inhibitors (20 mM NaF and 1 mM Na3VO4) and protease inhibitors (1 mM benzamidine and 0.1 mM PMSF), incubated with Benzonase (Merck) for at least 30 min at 4 °C, and clarified by centrifugation. Proteins were resolved by SDS-PAGE and transferred to nitrocellulose membranes. Immunoblots were performed with the indicated antibodies, and proteins were visualized using the Advansta WesternBright ECL reagent and the Fusion Solo S imaging system. Relative protein levels were determined by quantification of the protein of interest band intensity normalized to the loading control with the ImageJ software. […]\nthe mean (dashed lines) are indicated. Representative images are shown (bottom). Scale bar: 10 μm.\nThis experiment was repeated three times. (B) QIBC analysis of chromatin-bound GFP-FAN1 foci in U2OSGFP-FAN1 cells were concurrently mock-treated (-) or treated (+) with MMC (150 ng/ml) and either FT671 (10 µM) or GNE-6640 (10 µM) for 24 h. […] 24 h later, cells were either mock-treated (-) or treated (+) with MMC (1 μg/ml) for 48 h and whole-cell lysates were analysed by immunoblotting. […]\nRelative FAN1 protein levels were determined by quantification of FAN1 band intensity (normalized to GAPDH) with the ImageJ software. […]"}, "HeLa FAN1 KO cells": {"tested_on": "HeLa FAN1 KO cells", "assay": "clonogenic survival assay, HeLa FAN1 KO", "settings": "MMC 10, 20, and 40 ng/ml, 24 h, n=3", "protocol": "HeLa and RPE-1 p53 KO cells were transfected with the indicated siRNA. The next day, the cells were seeded in six-well plates. The next day, the cells were treated with MMC for 24 h. Plates were then washed twice with 2 ml of PBS before adding fresh growth medium to the cells, that were then cultured for 13 days at 37 °C before fixation with crystal violet solution [0.5% crystal violet and 20% ethanol (w/v)]. For analysis, plates were scanned and analysed with the ImageJ Plugin ColonyArea using the parameter “intensity percent”. […]\nthe mean (dashed lines) are indicated. Representative images are shown (bottom). Scale bar: 10 μm. […]\nWestern blot analysis of HeLa cells depleted of the indicated factors. (E) Clonogenic survival assay of the HeLa cells depleted of the indicated factors (Ctrl: black circle; FANCD2: red square; USP7#1: inverted blue triangle; USP7#2: cyan triangle; RAD18: brown diamond) and exposed to increasing doses of MMC for 24 h. Viability of untreated cells was defined as 100%. Data are presented as the means ± SD of four biological replicates (n=4). Representative images are shown (left). (F) Western blot analysis of HeLa and HeLa FAN1 KO cells depleted of the indicated factors. […]"}},
  "data": [
    {"smiles": "CO[C@@]12[C@H](COC(N)=O)C3=C(C(=O)C(C)=C(N)C3=O)N1C[C@@H]1N[C@@H]12", "note": "[MMC, Mitomycin C]", "values": [
      {"measurement": "PLA signals, FAN1-USP7 association", "setting": "FAN1-USP7", "value": "significantly increased in numbers"},
      {"measurement": "apoptosis (cleavage of PARP-1 and caspase-3)", "setting": "RPE-1 p53 KO cells", "value": "largely recapitulated"},
      {"measurement": "MMC sensitivity, RAD18 or FANCD2 depletion", "setting": "HeLa FAN1 KO cells", "value": "additive increase in sensitivity"},
      {"measurement": "MMC sensitivity, USP7 depletion", "setting": "HeLa FAN1 KO cells", "value": "did not exacerbate MMC hypersensitivity"}
    ]}
  ]
}
